From patent publication US12516036B2, “Crystal form of 3-(4-(benzyloxy)phenyl)hex-4-inoic acid derivative” (HYUNDAI PHARM CO., LTD., priority 2019, dated 2026)

What was measured:
[1] = biological target: free fatty acid receptor 1 (FFAR1)/a G-protein coupled receptor (GPR40) (Homo sapiens, UniProt O14842); details: cited from earlier work
[2] = in vivo; cited from earlier work
[3] = Thermal stability test (thermal stress, 80° C.); assay type: physicochemical; details: for Change in properties (appearance): 80° C.; for Purity (%) Initial: before thermal stress test; for Purity (%) Initial / Purity (%) Month 1 / Purity (%) Day 6 / Purity (%) Day 14: HPLC; for Purity change (%) Month 1 − Initial / Purity (%) Month 1 / Purity (%) Day 6 / Purity (%) Day 14: sealed vial, oven 80° C.; for Purity change (%) Month 1 − Initial: 1 month vs initial; for Purity (%) Month 1: 1 month; for Purity (%) Day 6: 6 days; for Purity (%) Day 14: 14 days; for Change in XRD pattern before and after thermal stress: 80° C. thermal stress (FIG. 11-14)
Experimental: The crystal form I, crystal form II, and amorphous form samples of a compound of Chemical Formula 1 were subjected to a thermal stability test.
0.3 g of each sample was input into a 20 mL vial (prepared 0.3 g*3 ea for each sample), and the vial was sealed by closing a lid and then allowed to stand in an oven set at 80° C. Afterward, the sample was taken out after 6 days, 14 days, and 1 month had elapsed, and the changes in properties, purity, and XRD pattern before and after thermal stress conditions were examined. • Purity was measured under the following conditions using a HPLC. • Column: YMC-Pack Pro C18, 5 um, 4.6×150 mm • Column temperature: 35° C. • Flow rate: 1.0 mL/min • Injection volume: 5 uL • Wavelength: 220 nm • Mobile Phase A: 0.1% TFA in H2O/MeOH=60/40 • Mobile Phase B: MeOH/0.1% TFA in ACN=60/40 • Gradient:
• Diluent: H2O/ACN=80/20 • Run time: 40 min • Sample concentration: 0.7 mg/mL

[4] = Compressibility test (bulk/tapped density, Carr index, Hausner ratio); assay type: physicochemical; details: for Carr Index (CI): CI=100×(1−BD/TD); for Hausner ratio (Hr): Hr=TD/BD; for Description of flow: criteria of Table 5; for Bulk density BD / Tapped density TD: unit assumed
Text: Since a drug that causes a lot of static electricity has difficulty in handling and compressing to form a tablet when formulated, it is very difficult to implement a preparation with a uniform drug content. Accordingly, in relation to the static electricity-inducing capability and flowability of the three types of crystal form I, crystal form II, and the amorphous form, the compressibility of each preparation containing these drugs was examined.
The Carr index is used as an indication of the compressibility of a preparation and is related to convenience in formulation, that is, static electricity-inducing capability, flowability, and uniformity of drug content.
The Carr Index (CI) is calculated as follows. CI=100×(1−BD/TD) • BD: bulk density, TD: tapped density
The Hausner ratio (Hr) is also an indication related to the flowability of a powder or granular drug.
The Hausner ratio (Hr) is calculated as follows. Hr=TD/BD
As a result of the test, the bulk density and tapped density of the crystal form I, the crystal form II, and the amorphous form were obtained and summarized in Table 4, through which the Carr Index (CI) and Hausner ratio (Hr) were obtained, and based on the criteria in Table 5, the evaluation results for the Carr Index (CI), Hausner ratio (Hr), and flowability are shown in Table 6.

[5] = Storage stability test (formulated powder, 60° C. and 75% RH); assay type: physicochemical; details: for Purity (%) Initial: powder mix with microcrystalline cellulose and light anhydrous silicic acid; for Purity (%) Week 2 / Purity (%) Week 4 / Purity (%) Week 8 / Purity change (%) Week 8 − Initial: powder mix; for Purity (%) Week 2: 2 weeks; for Purity (%) Week 4: 4 weeks; for Purity (%) Week 8: 8 weeks; for Purity change (%) Week 8 − Initial: 8 weeks vs initial
Experimental: In order to confirm stability when the crystal form I, crystal form II, and amorphous form of a compound of Chemical Formula 1 were formulated, powder obtained by mixing 50 mg of each sample, 149 mg of microcrystalline cellulose, and 1 mg of light anhydrous silicic acid was input into a brown glass bottle and allowed to stand in a stability chamber set under conditions of 60° C. and 75% RH, and the sample was taken out after 2 weeks, 4 weeks, 8 weeks had elapsed to confirm the purity of the compound of Chemical Formula 1 over time.
When the storage period for each storage condition was reached, 35 mg of the compound of Chemical Formula 1 was taken from each sample, input into a 50 mL volumetric flask, dissolved with an appropriate amount of diluent, and marked. The resulting solution was input into a glass centrifuge tube and centrifuged at 3,000 rpm and 5° C. for 10 minutes. The sample was taken using a glass pipette and input into a HPLC vial for analysis.

[6] = after 1 month of the thermal stress test (FIG. 10)

free fatty acid receptor 1 (FFAR1)/a G-protein coupled receptor (GPR40), sequence (O14842 whole entry, species assumed): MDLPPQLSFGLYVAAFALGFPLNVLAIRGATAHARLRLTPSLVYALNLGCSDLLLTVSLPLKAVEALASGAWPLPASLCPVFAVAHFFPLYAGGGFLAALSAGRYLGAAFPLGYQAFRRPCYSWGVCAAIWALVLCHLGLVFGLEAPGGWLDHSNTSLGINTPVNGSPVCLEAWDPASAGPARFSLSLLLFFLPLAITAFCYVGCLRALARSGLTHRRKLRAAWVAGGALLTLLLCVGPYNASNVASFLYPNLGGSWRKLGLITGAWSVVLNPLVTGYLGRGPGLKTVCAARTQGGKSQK

Purity (%) Initial [3] [%] | Purity change (%) Month 1 − Initial [3] [%] | Purity (%) Month 1 [3] [%] | Purity (%) Day 6 [3] [%] | Purity (%) Day 14 [3] [%] | Carr Index (CI) [4] | Hausner ratio (Hr) [4] | Description of flow [4] | Bulk density BD [4] [g/mL] | Tapped density TD [4] [g/mL] | Purity (%) Initial [5] [%] | Purity (%) Week 2 ([5]; 60° C. and 75% RH) [%] | Purity (%) Week 4 ([5]; 60° C. and 75% RH) [%] | Purity (%) Week 8 ([5]; 60° C. and 75% RH) [%] | Purity change (%) Week 8 − Initial ([5]; 60° C. and 75% RH) [%] | Change in properties (appearance) [3, 6] | SMILES | Change in XRD pattern before and after thermal stress [3] | further results
– | – | – | – | – | – | – | – | – | – | – | – | – | – | – | – | CC#C[C@@H](CC(=O)O)c1ccc(OCc2cccc(C3=CCC4(CC3)OCCO4)c2)cc1 [compound of Chemical Formula 1, (3S)-3-(4-(3-(1,4-dioxaspiro[4,5]dec-7-en-8-yl)benzyloxy)phenyl)hex-4-inoic acid] | – | Activation of FFAR1/GPR40 (increase of intracellular calcium concentration) [1]: activates; Blood sugar lowering effect [2]: excellent blood sugar lowering effect
99.33 | −11.69 | 87.64 | 96.76 | 94.35 | 18.48 | 1.23 | Fair (16-20) | 0.353 | 0.433 | 100.6 | 91.5 | 86.8 | 77.5 | −23.1 | – | CC#C[C@@H](CC(=O)O)c1ccc(OCc2cccc(C3=CCC4(CC3)OCCO4)c2)cc1 [Amorphous form, (3S)-3-(4-(3-(1,4-dioxaspiro[4,5]dec-7-en-8-yl)benzyloxy)phenyl)hex-4-inoic acid] | – | Change in properties (appearance) ([3]; after 6 days of the thermal stress test (FIG. 10)): turned yellow
99.40 | −3.65 | 95.75 | 98.67 | 97.91 | 13.41 | 1.15 | Good (11-15) | 0.381 | 0.44 | 100.2 | 101.8 | 100.9 | 99.9 | −0.3 | no significant change in properties | CC#C[C@@H](CC(=O)O)c1ccc(OCc2cccc(C3=CCC4(CC3)OCCO4)c2)cc1 [Crystal form I, (3S)-3-(4-(3-(1,4-dioxaspiro[4,5]dec-7-en-8-yl)benzyloxy)phenyl)hex-4-inoic acid] | no significant change in XRD pattern peak | Storage stability ranking ([5]; 60° C. and 75% RH, compared among crystal form I, crystal form II, amorphous form): stablest
99.53 | −3.75 | 95.78 | 98.73 | 97.80 | 54.05 | 2.18 | Very, very poor | 0.136 | 0.296 | 99.1 | 96.2 | 92.3 | 88 | −11.1 | no significant change in properties | CC#C[C@@H](CC(=O)O)c1ccc(OCc2cccc(C3=CCC4(CC3)OCCO4)c2)cc1 [Crystal form II, (3S)-3-(4-(3-(1,4-dioxaspiro[4,5]dec-7-en-8-yl)benzyloxy)phenyl)hex-4-inoic acid] | shifting of specific peaks | Compressibility test results (in words) [4]: very poor; Static electricity-inducing capability ([4]; filling a die for tableting): excessively caused static electricity
